In ChEMBL document CHEMBL1201862, “PubChem BioAssay data set” (2004):
Active and inactive are the calls of the source.

Legend:
[1] = target: T1, Corticotropin-releasing factor receptor 2/Corticotropin-releasing factor-binding protein (Homo sapiens, UniProt P24387+Q13324); assay: activators of CRF receptor 2 with binding protein – uHTS hits, confirmation (AID 602473); assay type: functional; conditions: read-out: EC50_Mean
T1 sequence (Q13324 whole entry): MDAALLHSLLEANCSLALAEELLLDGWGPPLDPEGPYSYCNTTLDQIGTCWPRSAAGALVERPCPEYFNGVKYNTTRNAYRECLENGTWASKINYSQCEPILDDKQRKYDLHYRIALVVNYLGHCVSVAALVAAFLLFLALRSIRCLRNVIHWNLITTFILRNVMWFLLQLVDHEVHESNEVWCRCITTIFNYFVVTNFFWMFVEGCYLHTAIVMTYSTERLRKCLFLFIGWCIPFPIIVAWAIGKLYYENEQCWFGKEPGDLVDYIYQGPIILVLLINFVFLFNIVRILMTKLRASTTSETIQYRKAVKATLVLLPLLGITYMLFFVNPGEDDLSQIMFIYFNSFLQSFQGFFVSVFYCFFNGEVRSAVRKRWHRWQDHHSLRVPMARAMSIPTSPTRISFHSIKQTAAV
T1 sequence (P24387 whole entry): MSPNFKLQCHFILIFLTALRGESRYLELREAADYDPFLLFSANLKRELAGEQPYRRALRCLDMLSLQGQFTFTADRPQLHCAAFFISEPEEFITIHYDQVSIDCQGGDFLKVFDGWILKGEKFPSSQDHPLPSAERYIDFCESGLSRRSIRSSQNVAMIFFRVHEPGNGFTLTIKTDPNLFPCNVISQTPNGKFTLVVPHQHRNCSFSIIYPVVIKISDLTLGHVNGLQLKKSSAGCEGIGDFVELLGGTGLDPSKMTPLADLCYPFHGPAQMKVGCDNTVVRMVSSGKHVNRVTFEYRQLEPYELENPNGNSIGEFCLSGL

[2] = target: Cytochrome P450 3A4 (Homo sapiens, UniProt P08684);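 note: CYP3A4 tested as one member of a cytochrome P450 panel screen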
Sequence of Cytochrome P450 3A4 (P08684 whole entry): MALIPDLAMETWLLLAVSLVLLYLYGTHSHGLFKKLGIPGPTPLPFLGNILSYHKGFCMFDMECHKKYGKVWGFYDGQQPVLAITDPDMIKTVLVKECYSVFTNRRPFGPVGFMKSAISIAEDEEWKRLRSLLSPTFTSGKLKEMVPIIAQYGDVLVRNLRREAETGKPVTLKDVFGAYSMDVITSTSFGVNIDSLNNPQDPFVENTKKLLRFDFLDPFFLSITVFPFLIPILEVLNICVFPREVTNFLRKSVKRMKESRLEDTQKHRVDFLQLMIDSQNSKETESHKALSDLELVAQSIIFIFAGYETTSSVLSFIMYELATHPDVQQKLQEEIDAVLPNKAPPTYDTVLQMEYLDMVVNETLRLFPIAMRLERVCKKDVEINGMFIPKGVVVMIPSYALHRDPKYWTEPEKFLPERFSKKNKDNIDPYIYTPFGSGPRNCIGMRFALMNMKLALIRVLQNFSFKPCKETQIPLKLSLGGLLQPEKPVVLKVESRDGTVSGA

[3] = target: Cytochrome P450 2C19 (Homo sapiens, UniProt P33261); assay: Cytochrome panel assay with activity outcomes. Panel member name: p450-cyp2c19 Compounds with AC50 equal or less than 10 uM are considered active; assay type: functional
Sequence of Cytochrome P450 2C19 (P33261 whole entry): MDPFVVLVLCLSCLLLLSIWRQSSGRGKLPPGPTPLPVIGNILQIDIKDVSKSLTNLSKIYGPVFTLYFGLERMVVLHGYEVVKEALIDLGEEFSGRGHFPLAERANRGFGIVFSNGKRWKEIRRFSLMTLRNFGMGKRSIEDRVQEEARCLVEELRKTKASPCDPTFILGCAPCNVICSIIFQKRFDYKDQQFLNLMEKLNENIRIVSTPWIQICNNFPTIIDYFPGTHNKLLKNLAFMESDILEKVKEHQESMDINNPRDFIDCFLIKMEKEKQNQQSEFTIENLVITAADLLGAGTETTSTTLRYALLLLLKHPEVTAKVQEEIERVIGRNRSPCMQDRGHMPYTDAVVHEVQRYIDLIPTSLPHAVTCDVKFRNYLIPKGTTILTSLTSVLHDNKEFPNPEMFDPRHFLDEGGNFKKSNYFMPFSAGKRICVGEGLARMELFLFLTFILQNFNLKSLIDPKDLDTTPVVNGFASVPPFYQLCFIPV

[4] = target: Cytochrome P450 2C9 (Homo sapiens, UniProt P11712)
Sequence of Cytochrome P450 2C9 (P11712 whole entry): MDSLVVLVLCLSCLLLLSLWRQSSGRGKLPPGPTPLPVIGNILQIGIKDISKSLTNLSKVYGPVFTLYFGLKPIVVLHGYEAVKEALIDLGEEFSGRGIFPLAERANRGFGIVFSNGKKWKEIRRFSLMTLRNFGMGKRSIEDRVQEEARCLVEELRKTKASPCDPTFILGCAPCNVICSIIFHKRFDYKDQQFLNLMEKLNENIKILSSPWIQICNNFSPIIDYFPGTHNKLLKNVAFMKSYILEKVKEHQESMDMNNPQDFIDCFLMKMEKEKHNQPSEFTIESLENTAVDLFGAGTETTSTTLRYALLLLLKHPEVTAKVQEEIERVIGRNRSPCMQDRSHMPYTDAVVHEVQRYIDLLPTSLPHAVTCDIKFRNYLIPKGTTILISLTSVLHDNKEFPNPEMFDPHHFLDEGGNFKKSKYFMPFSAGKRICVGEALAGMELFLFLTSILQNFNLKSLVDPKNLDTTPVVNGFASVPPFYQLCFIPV

[5] = NIH3T3 cell viability loss – ATP luminescence, mouse fibroblasts, counter-screen, dose response (AID 2010); assay type: functional, cell-based;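 note: cells exposed to compound for about 90 hours before reading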
[6] = Trypanosoma cruzi growth suppression in host cells – NIH3T3 host cells, beta-gal luminescence, confirmation (AID 2044); assay type: functional, cell-based;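 note: intracellular parasites grown in NIH/3T3 mouse fibroblasts as host cells; luminescent beta-galactosidase reporter signal from transgenic T. cruzi replicating inside host cells; inhibitors lower the luminescence signal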
[7] = alpha-synuclein stem-loop luciferase translation blockers – H4 neuroglioma cells, luminescence, confirmation (AID 1988); assay type: functional, cell-based
[8] = luciferase reporter signal suppression in cells – H4 neuroglioma cells, luminescence, dose response (AID 1990); assay type: functional, cell-based
[9] = Luminescence Cell-Based Dose Response HTS to Identify Inhibitors of 5'UTR Stem-Loop Driven Prion Protein mRNA Translation in H4 Neuroglioblastoma Cells. [Related pubchem assays: 1827 (Project Summary), 1813 (Primary HTS)]; assay type: functional

SMILES: N#C/C(=C(/O)c1cccc(F)c1)c1nc2ccccc2s1
- EC50 [1]: > 53 µM (inactive)

SMILES: CN(C)Cc1ccccc1-c1nc(N(C)Cc2ccco2)c2ccccc2n1
- AC50 [2]: 1.58 µM (inconclusive)

SMILES: CCCOC(=O)c1ccc(NC(=O)c2cn(CC)c3nc(C)ccc3c2=O)cc1
- AC50 ([3]; read-out: AC50): 20 µM (inconclusive)
- AC50 [4]: 15.8 µM (inconclusive)

SMILES: CCOc1ccc(S(=O)(=O)Nc2nc3ccccc3nc2Nc2ccc(N3CCOCC3)cc2)cc1
- EC50 [1]: > 53 µM (inactive)

SMILES: C=CCOc1c(Cl)cc(CNCCCN2CCOCC2)cc1OC
- EC50 [5]: 20.2 µM (active)
- EC50 [6]: 0.125 µM (active)

SMILES: CCOC(=O)c1sc(NC(=O)c2cccc(S(=O)(=O)N3c4ccccc4CC3C)c2)cc1C (centres undefined)
- EC50 [7]: 6.96 µM (active)
- EC50 [8]: 10.1 µM (active)
- EC50 [9]: 13.6 µM (active)

SMILES: Cc1ccc2cc(C(c3nnnn3C3CCCC3)N3CCN(c4ccc(F)cc4)CC3)c(O)nc2c1 (centres undefined)
- EC50 [7]: 106 µM (active)
- EC50 [8]: 20.6 µM (active)
- EC50 [9]: 113 µM (active)

SMILES: O=C(Nc1ccc(Br)cc1Cl)c1ccc2c(=O)n3c(nc2c1)CCC3
- EC50 [1]: 4.04 µM (active)

SMILES: O=C(OCc1ccccc1Cl)c1cc([N+](=O)[O-])ccc1N1CCOCC1
- EC50 [7]: 36.1 µM (active)
- EC50 [8]: 23.3 µM (active)
- EC50 [9]: > 120 µM (not active)

SMILES: O=c1c(-c2cccs2)nc2cncnc2n1C1CC1
- AC50 [4]: 15.8 µM (inconclusive)
- AC50 [2]: 5.01 µM (inconclusive)

SMILES: COc1ccccc1NC(=O)CCSc1nnnn1C
- EC50 [1]: > 53 µM (inactive)

SMILES: CSc1cccc(NC(=S)N(Cc2ccccc2)Cc2cccnc2)c1
- EC50 [5]: > 60 µM (not active)
- EC50 [6]: 0.653 µM (active)

SMILES: CC(C)=CCC/C(C)=C/CO/N=C1/C[C@@H](O)[C@@H](O)[C@@H]2[C@H]3C(=O)N(c4ccc(F)cc4F)C(=O)[C@@H]3CC[C@@H]12
- AC50 [2]: 3.98 µM (inconclusive)

SMILES: COc1ccc(Oc2ncc3ncc(=O)n(C[C@H]4CCCO4)c3n2)cc1
- AC50 [4]: 20 µM (inconclusive)

SMILES: CN(C)CCCOC(=O)c1ccc(Cl)cc1Cl
- EC50 [5]: > 60 µM (not active)
- EC50 [6]: 2.56 µM (active)

SMILES: COc1ccccc1-c1nc(N(C)C)c2ccccc2n1
- AC50 [2]: 15.8 µM (inconclusive)

SMILES: Cc1cc(Oc2ccccc2)nc(-c2ccccc2)n1
- AC50 [4]: 12.6 µM (inconclusive)

SMILES: c1ccc(Oc2cccc(OCCCCSc3ncccn3)c2)cc1
- EC50 [1]: > 53 µM (inactive)

SMILES: Cc1ccc(SCc2ccc(C(=O)Nc3ccccc3Br)cc2)cc1
- EC50 [1]: > 53 µM (inactive)

SMILES: COc1ncc2nc(CCc3ccccc3)c(=O)n(CCc3ccccc3)c2n1
- AC50 [4]: 2 µM (inconclusive)

SMILES: c1ccc(CNc2nc(-c3ccoc3)nc3ccccc23)cc1
- AC50 ([3]; read-out: AC50): 20 µM (inconclusive)

SMILES: C[C@@H](C(=O)Nc1ccc2ccccc2c1)[C@H]1C[C@]1(C)[C@H](NC(=O)Oc1ccc(F)cc1)c1ccccc1
- AC50 [4]: 31.6 µM (inconclusive)

SMILES: CCC/C=C(\CCC)C(NC(=O)OCC(C)C)c1ccc(C(=O)OC)cc1 (centres undefined)
- AC50 ([3]; read-out: AC50): 25.1 µM (inconclusive)

SMILES: CN(C)CCNC(=O)c1csc(Nc2cccc3ccccc23)n1
- EC50 [7]: 17.1 µM (active)
- EC50 [8]: > 120 µM (not active)
- EC50 [9]: 23.6 µM (active)

SMILES: COc1ccccc1-c1ccc2ncnc(Nc3ccccc3)c2c1
- AC50 [4]: 1.26 µM (inconclusive)

SMILES: OCCCCNCc1ccc(OCc2ccccc2Cl)cc1
- AC50 ([3]; read-out: AC50): 25.1 µM (inconclusive)
- AC50 [2]: 25.1 µM (inconclusive)

SMILES: Cc1cc(C)c2cc(C#N)c(NCCOC(=O)c3ccccc3C)nc2c1
- AC50 ([3]; read-out: AC50): 1.78 µM (inconclusive)

SMILES: Cc1cc(C)n(CC(=O)N/N=C/c2ccco2)n1
- AC50 [3]: inconclusive

SMILES: COc1ccc(C2(C)NC(=O)N(CC(=O)c3cc(C)n(C4CC4)c3C)C2=O)cc1 (centres undefined)
- EC50 [1]: 5.74 µM (active)

SMILES: Cc1c(CC(C)(C)C(=O)O)n(Cc2ccc(Cl)cc2)c2ccc(F)cc12
- AC50 [3]: inconclusive
- AC50 [2]: 25.1 µM (inconclusive)

SMILES: CCOC(=O)CC(=O)CSc1nc(-c2cccnc2)cc(C)c1C#N
- AC50 ([3]; read-out: AC50): 8.91 µM (inconclusive)
- AC50 [2]: 11.2 µM (inconclusive)

SMILES: COc1ccc(/C=N/NC(=O)C2CCN(c3ncc(C(F)(F)F)cc3Cl)CC2)cc1
- AC50 [2]: 11.2 µM (inconclusive)

SMILES: COc1ccc(NC(=O)N2CCCC3(CCN(C(=O)c4c(C)noc4C)CC3)C2)cc1
- AC50 [2]: 25.1 µM (inconclusive)

SMILES: COCCn1c(=O)c(-c2cccs2)nc2cnc(N3CCN(C)CC3)nc21
- AC50 [2]: 31.6 µM (inconclusive)

SMILES: COC(=O)[C@@]1(Cc2ccc(OC)cc2)[C@@H]2C(=CC(=O)[C@H]2CC(=O)C(=O)N2CCCC2)CN1C(=O)c1ccccc1
- AC50 ([3]; read-out: AC50): 39.8 µM (inconclusive)
- AC50 [2]: 2 µM (inconclusive)

SMILES: CCCCc1nc(NCC2CCCO2)c(C#N)c2c1COC(C)(C)C2 (centres undefined)
- EC50 [7]: > 120 µM (not active)
- EC50 [8]: 28 µM (active)
- EC50 [9]: > 120 µM (not active)

SMILES: Cc1cc(C(=O)OC2CCOC2=O)c2ccccc2n1 (centres undefined)
- AC50 ([3]; read-out: AC50): 28.2 µM (inconclusive)

SMILES: Cc1nc2cnc(Oc3cccc(Cl)c3)nc2n(C[C@H]2CCCO2)c1=O
- AC50 [2]: 15.8 µM (inconclusive)

SMILES: Cc1cc(C)cc(N2C(=O)/C(=C/NC3CCS(=O)(=O)C3)c3ccccc3C2=O)c1 (centres undefined)
- AC50 ([3]; read-out: AC50): 39.8 µM (inconclusive)

SMILES: Nc1ccc(S(=O)(=O)c2ccc(NCN3C(=O)NC(=O)C(=O)C3=O)cc2)cc1 [ALLANTODAPSONE]
- AC50 [3]: inconclusive

SMILES: COc1cc2c(cc1NC(=O)Nc1ccc(F)cc1)oc1ccccc12
- EC50 [5]: > 30 µM (not active)
- EC50 [6]: 1.94 µM (active)

SMILES: O=c1c(-c2ccc(Cl)cc2)nc2cncnc2n1Cc1ccc(F)cc1
- AC50 [2]: 15.8 µM (inconclusive)

SMILES: CC(C)(Oc1ccc(Cl)cc1)C(=O)Nc1cccnc1
- AC50 [2]: 17.8 µM (inconclusive)

SMILES: c1ccc(COc2cccc(CNCc3cccnc3)c2)cc1
- EC50 [5]: > 30 µM (not active)
- EC50 [6]: 8.34 µM (active)

SMILES: COc1cc([N+](=O)[O-])ccc1-c1ccc(/C=N/NC(=O)OC(C)(C)C)o1
- EC50 [1]: 6.43 µM (active)

SMILES: N#Cc1ccc(CN2CCCC3(CCN(C(=O)c4cccc(F)c4)CC3)C2)cc1
- AC50 [4]: 39.8 µM (inconclusive)
- AC50 [2]: 10 µM (inconclusive)

SMILES: Cc1cc(S(=O)(=O)NCCN(C)C)c(C)s1
- AC50 ([3]; read-out: AC50): 31.6 µM (inconclusive)
- AC50 [4]: 0.0447 µM (inconclusive)

SMILES: CCCOc1ccccc1N=C(Nc1nc(C)cc(C)n1)NS(=O)(=O)c1ccc(C)cc1
- EC50 [7]: > 120 µM (not active)
- EC50 [8]: 14.6 µM (active)
- EC50 [9]: > 120 µM (not active)

SMILES: COc1ccc(Cc2nn3c(-c4ccccc4Br)nnc3s2)cc1
- EC50 [7]: > 120 µM (not active)
- EC50 [8]: > 120 µM (not active)

SMILES: CCN(CC)CC#CCOC(=O)[C@@](O)(c1ccccc1)C1CCCCC1 [ESOXYBUTYNIN]
- AC50 [4]: 15.8 µM (inconclusive)

SMILES: COc1ccc(NC(=O)c2cc(-c3cccnc3)nc3ccc(C)cc23)cc1OC
- AC50 ([3]; read-out: AC50): 10 µM (inconclusive)
- AC50 [4]: 7.08 µM (inconclusive)

SMILES: CCOc1ccc(CNC(=O)C2CCC(=O)N2C2CCCC2)cc1OC (centres undefined)
- AC50 ([3]; read-out: AC50): 22.4 µM (inconclusive)
- AC50 [4]: 28.2 µM (inconclusive)
- AC50 [2]: 25.1 µM (inconclusive)

SMILES: Nc1cccc2cc(S(=O)(=O)Nc3ccc(C(=O)O)cc3)ccc12
- AC50 ([3]; read-out: AC50): 3.16 µM (inconclusive)
- AC50 [4]: 7.94 µM (inconclusive)

SMILES: COc1ccc(-c2oc3cc(OC)c(O)c(OC)c3c(=O)c2OC)cc1O
- EC50 [7]: 13.6 µM (active)
- EC50 [8]: 11.3 µM (active)
- EC50 [9]: 12.6 µM (active)

SMILES: COc1ccc(NC(=O)/C(=C\c2cc(OC)c(OC)cc2[N+](=O)[O-])NC(=O)c2ccccc2)cc1
- AC50 ([3]; read-out: AC50): 20 µM (inconclusive)
- AC50 [2]: 0.891 µM (inconclusive)

SMILES: Cc1ccccc1C(=O)Nc1cccc(NC(=O)Cn2cnc3c(=O)n(C)c(=O)n(C)c32)c1
- EC50 [7]: > 120 µM (not active)
- EC50 [8]: 26.9 µM (active)
- EC50 [9]: 12.9 µM (active)

SMILES: CC1(C)C(=O)OC(c2cccn2-c2ccc([N+](=O)[O-])cc2)C2(CCCCC2)C1=O (centres undefined)
- EC50 [1]: 4.72 µM (active)

SMILES: COc1cccc(-c2ccc3ncnc(NCc4cccnc4)c3c2)c1
- AC50 [4]: 1.58 µM (inconclusive)

SMILES: Cc1cc(C)c(S(=O)(=O)c2ccc(Cl)cc2C)c(Cl)n1
- EC50 [5]: 35.9 µM (active)
- EC50 [6]: 0.336 µM (active)

SMILES: COc1ccc2[nH]c(C(O)(Cc3cccnc3)Cc3cccnc3)cc2c1
- EC50 [5]: > 60 µM (inconclusive)
- EC50 [6]: 2.42 µM (active)

SMILES: CCN(CC)CCN(C(=O)CCOc1ccccc1)c1nc2c(F)cc(F)cc2s1
- EC50 [5]: > 60 µM (inconclusive)
- EC50 [6]: 1.02 µM (active)
